Earlier results, collected in patent publication US12473247B2, “Encoded design integrated synthesis of nucleic acids, and phospholipids, and related pharmaceutical products” (priority 2023, dated 2025).

Key:
[1] = ratio relative to cortisol = 1; pharmacological potency of corticosteroids

SMILES	relative activity of dexamethasone:prednisolone:cortisol [1]	solubility in aqueous
C[C@]12CCC(=O)C=C1CC[C@@H]1[C@@H]2[C@@H](O)C[C@@]2(C)[C@H]1CC[C@]2(O)C(=O)CO [cortisol]	~1	–
C[C@]12C=CC(=O)C=C1CC[C@@H]1[C@@H]2[C@@H](O)C[C@@]2(C)[C@H]1CC[C@]2(O)C(=O)CO [prednisolone]	~4	–
c1ccc2c(c1)ccc1c3ccccc3ccc21 [chrysene]	–	insoluble
